Assay results from patent US20030176445A1, “Substituted 1,4-dihydropyridine compounds as bradykinin antagonists” (Pfizer Inc., priority 1999, published 2003).
Structures can show the parent of a compound that is named as a salt.

melting point	SMILES
174 to 177 °C (dec.)	CCCCC1(O)C2CCC1CC(N1CCN(C(=O)CC3=C(C(=O)OC)C(c4c(Cl)cccc4Cl)C(C(=O)OC)=C(CCc4nccs4)N3)CC1)C2 (stereo not drawn) (as salt: hydrochloride) [Example 6, Dimethyl 4-(2,6-dichlorophenyl)-2-[2-[4-(8-butyl-8-hydroxybicyclo[3.2.1]oct-3-yl)-1-piperazinyl]-2-oxoethyl]-6-[2-(1,3-thiazol-2-yl)ethyl]-1,4-dihydro-3,5-pyridinedicarboxylate]
178 to 180 °C (dec.)	COC(=O)C1=C(CCc2nccs2)NC(CC(=O)N2CCN(C3CC4CCC(C3)C4(O)C(C)C)CC2)=C(C(=O)OC)C1c1c(Cl)cccc1Cl (stereo not drawn) (as salt: hydrochloride) [Example 7, Dimethyl 4-(2,6-dichlorophenyl)-2-[2-[4-(8-hydroxy-8-isopropylbicyclo[3.2.1]oct-3-yl)-1-piperazinyl]-2-oxoethyl]-6-[2-(1,3-thiazol-2-yl)ethyl]-1,4-dihydro-3,5-pyridinedicarboxylate]
214 to 220 °C (dec.)	COC(=O)C1=C(CCc2nccs2)NC(CC(=O)N2CCN(C3CC4CC(=O)CC4C3)CC2)=C(C(=O)OC)C1c1c(Cl)cccc1Cl (stereo not drawn) (as salt: hydrochloride) [Example 10, Dimethyl 4-(2,6-dichlorophenyl)-2-[2-oxo-2-[4-(5-oxooctahydro-2-pentalenyl)-1-piperazinyl]ethyl]-6-(2-(1,3-thiazol-2-yl)ethyl)-1,4-dihydro-3,5-pyridinedicarboxylate]
